Reference: patent US20250084041A1, “ANTIMICROBIAL COMPOUNDS AND METHODS” (Curza Global, LLC, priority 2021, published 2025)
Counter-ions that a name gives are not always drawn. Like-named read-outs stand apart in the source and are kept apart here.

Columns and labels:
[1] = target: Rabbit Reticulocyte Lysate; assay: Rabbit Reticulocyte Lysate: inhibition of eukaryotic protein synthesis (luciferase); format: biochemical; details: 30° C. 90 minutes, read-out: Retic. IC50
Method in brief: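 Nuclease-treated rabbit reticulocyte lysate translating luciferase control RNA with complete amino acids; compounds in 8-point 2-fold dilutions, 90 min at 30° C. Luminescence read after luciferase reagent; % inhibition versus water (no-inhibitor) control, no-RNA wells as background.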

P. aeruginosa (Pa) = assay: Broth microdilution MIC, P. aeruginosa; format: cell-based; details: for MIC: Pseudomonas aeruginosa, read-out: Pa + bicarb 25 (MIC)
Method in brief: (§1)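 CLSI broth microdilution (M07-A9, slightly modified): two-fold serial dilutions in CAMHB, CAMHB plus 25 mM sodium bicarbonate, or CAMHB with 0-50% heat-inactivated human serum, 8 dilutions in triplicate. Inoculum 5×10^4 CFU/well from 0.5 McFarland cultures grown at 35±2° C.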

E. faecalis (Ef) = assay: Broth microdilution MIC, E. faecalis; format: cell-based; details: Enterococcus faecalis, read-out: Ef + bicarb 25 (MIC)
Method in brief: as §1

E. coli S30 extract = assay: E. coli S30 extract: inhibition of bacterial protein synthesis (luciferase); format: biochemical; details: 37° C. 1 hour
Method in brief: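 Coupled transcription-translation in E. coli S30 extract, programmed with pBESTluc plasmid, was run with 8-point 2-fold compound dilutions for 1 h at 37 °C. After a cold stop, luciferase luminescence was read and percent inhibition calculated against no-inhibitor controls.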

S. aureus (Sa) = assay: Broth microdilution MIC, S. aureus; format: cell-based; details: for MIC: Staphylococcus aureus, read-out: Sa + bicarb 25 (MIC)
Method in brief: as §1

E. coli (Ec) = assay: Broth microdilution MIC, E. coli; format: cell-based; details: for MIC: Escherichia coli, read-out: E. coli + bicarb 25 (MIC)
Method in brief: as §1

A. baumannii (Ab) = assay: Broth microdilution MIC, A. baumannii; format: cell-based; details: for MIC: Acinetobacter baumannii, read-out: Ab + bicarb 25 (MIC)
Method in brief: as §1

[2] = P. aeruginosa, CAMHB supplemented with sodium bicarbonate 25 mM
[3] = S. aureus, CAMHB supplemented with sodium bicarbonate 25 mM
[4] = E. coli, CAMHB supplemented with sodium bicarbonate 25 mM

Row | SMILES | IC50 [1] [nM] | MIC (P. aeruginosa (Pa)) [µg/mL] | MIC (E. faecalis (Ef)) [µg/mL] | IC50 (E. coli S30 extract) [nM] | MIC (S. aureus (Sa)) [µg/mL] | MIC (E. coli (Ec)) [µg/mL] | MIC (A. baumannii (Ab)) [µg/mL] | Pa + bicarb 25 (MIC) (P. aeruginosa (Pa); [2]) | IC50 (E. coli S30 extract; hydrochloride salt) [nM] | Sa + bicarb 25 (MIC) (S. aureus (Sa); [3]) | E. coli + bicarb 25 (MIC) (E. coli (Ec); [4]) | MIC (P. aeruginosa (Pa); [2]) [µg/mL] | MIC (E. faecalis (Ef); E. faecalis, CAMHB supplemented with sodium bicarbonate 25 mM) [µg/mL] | MIC (S. aureus (Sa); [3]) [µg/mL] | MIC (E. coli (Ec); [4]) [µg/mL] | Ab + bicarb 25 (MIC) (A. baumannii (Ab); A. baumannii, CAMHB supplemented with sodium bicarbonate 25 mM, hydrochloride salt)
1 | CC(C)(N)C(=O)N1CCN(C(=O)Nc2ccn(C3=CCC(CN4CC[C@@H](CN)C4)CC3)c(=O)n2)CC1 (stereo in doubt) [Compound 24, (R)-4-(2-Amino-2-methylpropanoyl)-N-(1-(4-((3-(aminomethyl)pyrrolidin-1-yl)methyl)cyclohex-1-en-1-yl)-2-oxo-1,2-dihydropyrimidin-4-yl)piperazine-1-carboxamide hydrochloride salt] | ≥ 1000 | > 32 | > 32 | < 500 | < 8 | < 8 | > 32 | – | – | – | – | – | – | – | – | –
2 | CC(C)(N)C(=O)N1CCN(C(=O)Nc2ccn(C3CCC(CN4CC(CN)C4)CC3)c(=O)n2)CC1 (centres unmarked) [Compound 14, 4-(2-Amino-2-methylpropanoyl)-N-(1-(4-((3-(aminomethyl)azetidin-1-yl)methyl)cyclohexyl)-2-oxo-1,2-dihydropyrimidin-4-yl)piperazine-1-carboxamide hydrochloride salt] | ≥ 1000 | > 32 | 8 to 32 | < 500 | < 8 | < 8 | > 32 | – | – | – | – | – | – | – | – | –
3 | CC(C)(N)C(=O)N1CCN(C(=O)Nc2ccn(C3=CCC(CN[C@H]4CC[C@H](N)CC4)CC3)c(=O)n2)CC1 (single isomer, unassigned) [Compound 39, trans-4-(2-Amino-2-methylpropanoyl)-N-(1-(4-(((4-aminocyclohexyl)amino)methyl)cyclohex-1-en-1-yl)-2-oxo-1,2-dihydropyrimidin-4-yl)piperazine-1-carboxamide hydrochloride salt] | ≥ 1000 | > 32 | < 8 | < 500 | < 8 | < 8 | > 32 | – | – | – | – | – | – | – | – | –
4 | CN(C[C@H]1CC[C@H](n2ccc(NC(=O)N3CCN(C(=O)C(C)(C)N)CC3)nc2=O)CC1)[C@H]1CC[C@H](N)CC1 [Compound 19, 4-(2-Amino-2-methylpropanoyl)-N-(1-(trans-4-(((trans-4-aminocyclohexyl)(methyl)amino)methyl)cyclohexyl)-2-oxo-1,2-dihydropyrimidin-4-yl)piperazine-1-carboxamide hydrochloride salt] | ≥ 1000 | > 32 | < 8 | < 500 | < 8 | < 8 | 8 to 32 | – | – | – | – | – | – | – | – | –
5 | CC(C)(N)C(=O)N1CCN(C(=O)Nc2ccn(C3=CCC(CN[C@H]4CC[C@H](N)C4)CC3)c(=O)n2)CC1 (stereo partly drawn) [Compound 3, 4-(2-Amino-2-methylpropanoyl)-N-(1-(4-((((1S,3S)-3-aminocyclopentyl)amino)methyl)cyclohex-1-en-1-yl)-2-oxo-1,2-dihydropyrimidin-4-yl)piperazine-1-carboxamide hydrochloride salt] | ≥ 1000 | > 32 | > 32 | < 500 | < 8 | < 8 | > 32 | – | – | – | – | – | – | – | – | –
6 | CC1(N)CCN(CC2CC=C(n3ccc(NC(=O)N4CCN(C(=O)C(C)(C)N)CC4)nc3=O)CC2)CC1 (single isomer, unassigned) [Compound 37, 4-(2-Amino-2-methylpropanoyl)-N-(1-(4-((4-amino-4-methylpiperidin-1-yl)methyl)cyclohex-1-en-1-yl)-2-oxo-1,2-dihydropyrimidin-4-yl)piperazine-1-carboxamide hydrochloride salt] | ≥ 1000 | > 32 | < 8 | < 500 | < 8 | < 8 | > 32 | – | – | – | – | – | – | – | – | –
7 | CC(C)(N)C(=O)N1CCN(C(=O)Nc2ccn([C@H]3CC[C@H](CN4CC[C@H](CN)C4)CC3)c(=O)n2)CC1 [Compound 51, (R)-Trans-4-(2-amino-2-methylpropanoyl)-N-(1-(4-((3-(aminomethyl)pyrrolidin-1-yl)methyl)cyclohexyl)-2-oxo-1,2-dihydropyrimidin-4-yl)piperazine-1-carboxamide Hydrochloride] | ≥ 1000 | > 32 | 8 to 32 | < 500 | < 8 | < 8 | > 32 | – | – | – | – | – | – | – | – | –
8 | CC(C)(N)C(=O)N1CCN(C(=O)Nc2ccn(C3CCC(CN4C[C@@H]5[C@@H](N)[C@@H]5C4)CC3)c(=O)n2)CC1 (stereo partly drawn) [Compound 5, 4-(2-Amino-2-methylpropanoyl)-N-(1-(4-((exo-6-amino-3-azabicyclo[3.1.0]hexan-3-yl)methyl)cyclohexyl)-2-oxo-1,2-dihydropyrimidin-4-yl)piperazine-1-carboxamide hydrochloride salt] | ≥ 1000 | – | < 8 | – | – | – | 8 to 32 | + (An MIC value (μg/mL) that is 32 μg/mL or greater) | < 500 | +++ (An MIC value (μg/mL) that is less than 8 μg/mL) | +++ (An MIC value (μg/mL) that is less than 8 μg/mL) | – | – | – | – | –
9 | CC(C)(N)C(=O)N1CCN(C(=O)Nc2ccn([C@H]3CC[C@H](CN[C@H]4CC[C@@H](N)CC4)CC3)c(=O)n2)CC1 [Compound 17, 4-(2-Amino-2-methylpropanoyl)-N-(1-(trans-4-(((cis-4-aminocyclohexyl)amino)methyl)cyclohexyl)-2-oxo-1,2-dihydropyrimidin-4-yl)piperazine-1-carboxamide hydrochloride salt] | ≥ 1000 | > 32 | < 8 | < 500 | < 8 | < 8 | > 32 | – | – | – | – | – | – | – | – | –
10 | CC(C)(N)C(=O)N1CCN(C(=O)Nc2ccn(C3=CCC(CN4CC[C@H](CN)C4)CC3)c(=O)n2)CC1 (stereo in doubt) [Compound 23, (S)-4-(2-Amino-2-methylpropanoyl)-N-(1-(4-((3-(aminomethyl)pyrrolidin-1-yl)methyl)cyclohex-1-en-1-yl)-2-oxo-1,2-dihydropyrimidin-4-yl)piperazine-1-carboxamide hydrochloride salt] | ≥ 1000 | > 32 | 8 to 32 | < 500 | < 8 | < 8 | > 32 | – | – | – | – | – | – | – | – | –
11 | CC(C)(N)C(=O)N1CCN(C(=O)Nc2ccn(C3CCC(CN4CCCC(N)CC4)CC3)c(=O)n2)CC1 (centres unmarked) [Compound 9, 4-(2-Amino-2-methylpropanoyl)-N-(1-(4-((4-aminoazepan-1-yl)methyl)cyclohexyl)-2-oxo-1,2-dihydropyrimidin-4-yl)piperazine-1-carboxamide hydrochloride salt] | ≥ 1000 | > 32 | < 8 | < 500 | < 8 | < 8 | 8 to 32 | – | – | – | – | – | – | – | – | –
12 | CC(C)(N)C(=O)N1CCN(C(=O)Nc2ccn([C@H]3CC[C@H](CN4CCC5(CC4)CC(N)C5)CC3)c(=O)n2)CC1 [Compound 20, 4-(2-Amino-2-methylpropanoyl)-N-(1-(trans-4-((2-amino-7-azaspiro[3.5]nonan-7-yl)methyl)cyclohexyl)-2-oxo-1,2-dihydropyrimidin-4-yl)piperazine-1-carboxamide hydrochloride salt] | ≥ 1000 | 8 to 32 | < 8 | < 500 | < 8 | < 8 | < 8 | – | – | – | – | – | – | – | – | –
13 | CC(C)(N)C(=O)N1CCN(C(=O)Nc2ccn(C3CCC(CN4CC[C@@H](CN)C4)CC3)c(=O)n2)CC1 (stereo partly drawn) [Compound 46, (S)-4-(2-Amino-2-methylpropanoyl)-N-(1-(4-((3-(aminomethyl)pyrrolidin-1-yl)methyl)cyclohexyl)-2-oxo-1,2-dihydropyrimidin-4-yl)piperazine-1-carboxamide hydrochloride salt] | ≥ 1000 | > 32 | > 32 | < 500 | < 8 | < 8 | > 32 | – | – | – | – | – | – | – | – | –
14 | CC(C)(N)C(=O)N1CCN(C(=O)Nc2ccn(C3CCC(CN4C[C@@H]5[C@@H](N)[C@@H]5C4)CC3)c(=O)n2)CC1 (stereo partly drawn) [Compound 6, 4-(2-Amino-2-methylpropanoyl)-N-(1-(cis-4-((exo-6-amino-3-azabicyclo[3.1.0]hexan-3-yl)methyl)cyclohexyl)-2-oxo-1,2-dihydropyrimidin-4-yl)piperazine-1-carboxamide hydrochloride salt] | ≥ 1000 | – | – | – | – | – | – | – | ≥ 1000 | – | – | > 32 | 8 to 32 | < 8 | < 8 | + (An MIC value (μg/mL) that is 32 μg/mL or greater)
